Molecules are shown by their SMILES.

For the assay, the system named is C57BL/c mice, VD3-induced vascular calcification. Description: VD3-induced aortic vascular calcification mouse model, alizarin red staining. The class given is in vivo. The note with it: VD3 500 IU/g/day for 2 days, C1632 68 mg/kg twice a week, after 6 days; FIG. 15. The protocol: C57BL/c mice were intraperitoneally injected with VD3 at a dose of 500 IU/g/day for 2 consecutive days, and then divided into: (1) Saline group; (3) C1632 group, 10 mice in each group. C1632 was administered twice a week, and CKD mice were treated with C1632 at a dose of 68 mg/kg of body weight each time. After 6 days, the mice were sacrificed, and the aortic blood vessels were dissected for alizarin red staining and hydroxyapatite staining.

As to `CC(=O)N(C)c1cccc(-c2ccc3nnc(C)n3n2)c1` [C1632], the “Aortic vascular calcification, alizarin red staining” value is on record as “significantly inhibits the progression of aortic vascular calcification”.

Source of the values: US20240277708A1, “Use of [1,2,4] Triazolo [4,3-B] Pyridazine Derivative For Preventing and Treating Senescence and Senescence-Related Diseases” (The Eighth Affiliated Hospital, Sun Yat-Sen University, priority 2023, published 2024).
